Experimental data: patent US20250297310A1, “HEMATOPOIETIC LOSS OF Y CHROMOSOME LEADS TO CARDIAC FIBROSIS AND DYSFUNCTION AND IS ASSOCIATED WITH DEATH DUE TO HEART FAILURE” (University of Virginia Patent Foundation, priority 2022, published 2025)

Assays:
[1] = tested on: centromere of the Y chromosome; assay: Y chromosome ablation efficiency by FISH analysis of tRFP-positive blood cells; type: cell-based; conditions: tRFP-positive blood cells from reconstituted mice
Source text: Plasmids. Single guide RNAs (sgRNA) targeting the centromere of the Y chromosome (gRNA1, gRNA2) were from a previous report (Adikusuma et al., 2017), and the control gRNA is non-targeting. sgRNA sequences are listed in Table 4. Single stranded sgRNA sequences were annealed and cloned into pLKO.sgRNA.EFS.tRFP following restriction digestion with Esp3I, and successful cloning was confirmed by Sanger sequencing with U6 primer (Table 4). Plasmids were from Addgene (pLKO5.0.sgRNA.EFS.tRFP, plasmid #57823; psPAX2; plasmid #12260; and pMD2.G, plasmid #12259).
Ex vivo genome editing of HSPC. sgRNAs were delivered lentivirally to bone marrow lineage-negative cells obtained from ROSA26Cas9 knock-in mice as described previously (Sano et al., 2019).
Fluorescence in situ hybridization (FISH). […] 200 interphase nuclei were analyzed by two technologists using an Olympus fluorescence microscope (model BX-41).
We constructed a mouse model of hematopoietic mLOY by employing CRISPR/Cas9 gene editing to target repeat DNA sequences that are specific to the centromere of the Y chromosome. […] Two LOY-gRNAs (LOY-gRNA1 and 2) targeting different repeat sequences within the centromere were evaluated for the efficiency of Y chromosome ablation by fluorescent in situ hybridization (FISH) analysis of X and Y chromosome in tRFP-positive blood cells collected from mice reconstituted with bone marrow cells. […]

[2] = Effect of senolytic ABT-263 on lifespan and kidney function in aging hematopoietic Uty-KO mice; type: in vivo
Source text: FIGS. 28A-28C. The effect of the senolytic ABT-263 on lifespan and kidney function in aging hematopoietic Uty-KO mice. FIG. 28A. Exemplary model of ABT-263 mice. FIGS. 28B and 28C.
FIGS. 28A-28C show the effect of the senolytic ABT-263 on lifespan and kidney function in aging hematopoietic Uty-KO mice, using an exemplary model of ABT-263 mice.

Molecule | Y chromosome ablation efficiency [1] | progression of renal dysfunction [2] | survival [2]
LOY-gRNA1: guide RNA targeting a repeat sequence in the centromere of the Y chromosome, SEQ ID NOs: 1-2 (guide 1 CACCGGAGUUAAUAUAAAAAACA; guide 2 AAACUGUUUUUUAUAUUAACUCC; listed as RNA, chemistry not fully specified) | approximately 95% | – | –
CC1(C)CCC(c2ccc(Cl)cc2)=C(CN2CCN(c3ccc(C(=O)NS(=O)(=O)c4ccc(N[C@H](CCN5CCOCC5)CSc5ccccc5)c(S(=O)(=O)C(F)(F)F)c4)cc3)CC2)C1 [ABT-263] | – | suppressed the progression of renal dysfunction | promoted survival
